Molecular target: FPR2 (Homo sapiens (Human), UniProt P25090)
Assay: FLIPR Ca+2 response, HEK-Gα16 cells stably expressing the human FPR2 receptor (Table 4)
Assay type: cell-based
Settings: for FPR2 (efficacy): efficacy in parentheses
Protocol: FLIPR: HEK-Gα16 cells stably expressing the human FPR2 receptor was utilized. Cells were plated into 384-well poly-D-lysine coated plates at a density of 18,000 cells per well one day prior to use. The growth media was DMEM medium supplemented with 10% fetal bovine serum (FBS), 1% antibiotic-antimycotic, 50 μg/ml hygromycin, and 400 μg/ml geneticin. On the day of the experiment, the cells were washed twice with Hank's Balanced Salt Solution supplemented with 20 mM HEPES (HBSS/hepes buffer). The cells were then dye loaded with 2 μM Fluo-4 diluted in the HBSS/Hepes buffer and incubated at 37° C. for 40 minutes. Extracellular dye was removed by washing the cell plates four times prior to placing the plates in the FLIPR (Fluorometric Imaging Plate Reader, Molecular Devices). Ligands were diluted in HBSS/Hepes buffer and prepared in 384-well microplates. Data for Ca^+2 responses were obtained in relative fluorescence units.

Chain of FPR2 (P25090 whole entry): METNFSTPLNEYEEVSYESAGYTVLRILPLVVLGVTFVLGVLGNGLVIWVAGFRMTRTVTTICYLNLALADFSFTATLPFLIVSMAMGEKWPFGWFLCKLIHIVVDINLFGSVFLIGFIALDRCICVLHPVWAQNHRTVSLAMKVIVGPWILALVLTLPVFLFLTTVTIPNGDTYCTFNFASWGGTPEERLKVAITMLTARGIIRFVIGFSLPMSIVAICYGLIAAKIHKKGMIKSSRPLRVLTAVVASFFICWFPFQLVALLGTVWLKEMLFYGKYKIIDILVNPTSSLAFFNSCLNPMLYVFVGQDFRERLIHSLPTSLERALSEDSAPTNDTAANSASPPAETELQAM

| FPR2 (efficacy) | EC50 [nM] | SMILES |
| --- | --- | --- |
| nM (0.90) | 1.6 | NC(=O)C1C(C(=O)Nc2ccc(I)cc2)C2C=CC1C21CC1 (stereo not drawn) [Compound 39, N-(4-iodophenyl) spiro[bicyclo[2.2.1]heptane-7,1′-cyclopropane]-5-ene-2,3-dicarboxamide] |
| nM (0.91) | 103 | C[S+]([O-])c1ccc(NC(=O)Nc2ccc3c(c2)C(=O)N(CCCNC(=O)OC(C)(C)C)[C@@H](c2ccc(C#N)cc2)C3)cc1 (stereo partly drawn) [Compound 40, (+) tert-butyl {3-[(3R)-3-(4-cyanophenyl)-7-({[4-(methylsulfinyl)phenyl]carbamoyl}amino)-1-oxo-3,4-dihydroisoquinolin-2(1H)-yl]propyl}carbamate] |
| nM (0.94) | – | C[S+]([O-])c1ccc(NC(=O)Nc2ccc3c(c2)C(=O)N(CCCN)[C@@H](c2ccc(C#N)cc2)C3)cc1 (stereo partly drawn) [Compound 41, (+) 1-[(3R)-2-(3-aminopropyl)-3-(4-cyanophenyl)-1-oxo-1,2,3,4-tetrahydroisoquinolin-7-yl]-3-[4-(methylsulfinyl)phenyl]urea] |
| nM (1.00) | – | CSc1ccc(NC(=O)Nc2ccc3c(c2)C(=O)N(CCCN)C(C)C3)cc1 (stereo not drawn) [Compound 42, 1-[2-(3-aminopropyl)-3-methyl-1-oxo-1,2,3,4-tetrahydroisoquinolin-7-yl]-3-[4-(methylsulfanyl)phenyl]urea] |
| nM (0.94) | 13.7 | N#Cc1ccc(C2Cc3ccc(NC(=O)Nc4ccc(I)cc4)cc3C(=O)N2CCCN)cc1 (stereo not drawn) [Compound 43, 1-[2-(3-aminopropyl)-3-(4-cyanophenyl)-1-oxo-1,2,3,4-tetrahydroisoquinolin-7-yl]-3-(4-iodophenyl)urea] |
| nM (0.98) | – | O=C(Nc1ccc(Br)cc1)[C@@H]1C2CCC([C@@H]1C(=O)O)C21CC1 (stereo partly drawn) [Compound 44, (+) (2S,3R)-3-[(4-bromophenyl)carbamoyl]spiro[bicyclo[2.2.1]heptane-7,1′-cyclopropane]-2-carboxylic acid] |
| nM (1.0) | 8.5 | CNC(=O)C1C(C(=O)Nc2ccc(Br)cc2)C2CCC1C21CC1 (stereo not drawn) [Compound 46, N-(4-bromophenyl)-N′-methylspiro[bicyclo[2.2.1]heptane-7,1′-cyclopropane]-2,3-dicarboxamide] |
| nM (1.0) | 9.3 | CCNC(=O)C1C(C(=O)Nc2ccc(Br)cc2)C2CCC1C21CC1 (stereo not drawn) [Compound 47, N-(4-bromophenyl)-N′-ethylspiro[bicyclo[2.2.1]heptane-7,1′-cyclopropane]-2,3-dicarboxamide] |
| nM (1.0) | 6.7 | CC(C)NC(=O)C1C(C(=O)Nc2ccc(Br)cc2)C2CCC1C21CC1 (stereo not drawn) [Compound 48, N-(4-bromophenyl)-N′-(propan-2-yl)spiro[bicyclo[2.2.1]heptane-7,1′-cyclopropane]-2,3-dicarboxamide] |

The next lines start with the compound.

| SMILES | FPR2 (efficacy) | EC50 [nM] |
| --- | --- | --- |
| CSc1ccc(NC(=O)Nc2ccc3c(c2)C(=O)N(CCc2c[nH]cn2)C(c2ccco2)C3)cc1 (stereo not drawn) [Compound 23, 1-{3-(furan-2-yl)-2-[2-(1H-imidazol-4-yl)ethyl]-1-oxo-1,2,3,4-tetrahydroisoquinolin-7-yl}-3-[4-(methylsulfanyl)phenyl]urea] | nM (0.83) | – |
| C[S+]([O-])c1ccc(NC(=O)Nc2ccc3c(c2)C(=O)N(CCc2c[nH]cn2)C(c2ccc(F)cn2)C3)cc1 (stereo not drawn) [Compound 24, 1-{3-(5-fluoropyridin-2-yl)-2-[2-(1H-imidazol-4-yl)ethyl]-1-oxo-1,2,3,4-tetrahydroisoquinolin-7-yl}-3-[4-(methylsulfinyl)phenyl]urea] | nM (0.93) | – |
| CS(=O)(=O)c1ccc(NC(=O)Nc2ccc3c(c2)C(=O)N(CCc2c[nH]cn2)C(c2ccc(F)cn2)C3)cc1 (stereo not drawn) [Compound 25, 1-{3-(5-fluoropyridin-2-yl)-2-[2-(1H-imidazol-4-yl)ethyl]-1-oxo-1,2,3,4-tetrahydroisoquinolin-7-yl}-3-[4-(methylsulfonyl)phenyl]urea] | nM (1.0) | – |
| NC(=O)C1C(C(=O)Nc2ccc(Br)cc2)C2C=CC1C21CC1 (stereo not drawn) [Compound 26, N-(4-bromophenyl) spiro[bicyclo[2.2.1]heptane-7,1′-cyclopropane]-5-ene-2,3-dicarboxamide] | nM (0.91) | – |
| CSc1ccc(NC(=O)Nc2ccc3c(c2)C(=O)N(CCc2c[nH]cn2)C(c2ccc(Cl)o2)C3)cc1 (stereo not drawn) [Compound 27, 1-{3-(5-chlorofuran-2-yl)-2-[2-(1H-imidazol-4-yl)ethyl]-1-oxo-1,2,3,4-tetrahydroisoquinolin-7-yl}-3-[4-(methylsulfanyl)phenyl]urea] | nM (0.81) | – |
| CSc1ccc(NC(=O)Nc2ccc3c(c2)C(=O)N(CCc2c[nH]cn2)C(c2ccc(Cl)nc2)C3)cc1 (stereo not drawn) [Compound 28, 1-{3-(6-chloropyridin-3-yl)-2-[2-(1H-imidazol-4-yl)ethyl]-1-oxo-1,2,3,4-tetrahydroisoquinolin-7-yl}-3-[4-(methylsulfanyl)phenyl]urea] | nM (0.89) | – |
| NC(=O)C1C(C(=O)Nc2ccc(Br)cc2)C2CCC1C21CC1 (stereo not drawn) [Compound 30, N-(4-bromophenyl) spiro[bicyclo[2.2.1]heptane-7,1′-cyclopropane]-2,3-dicarboxamide] | nM (0.96) | 2.5 |
| CSc1ccc(NC(=O)Nc2ccc3c(c2)C(=O)N(CCc2c[nH]cn2)C(c2ccc(Cl)cn2)C3)cc1 (stereo not drawn) [Compound 32, 1-{3-(5-chloropyridin-2-yl)-2-[2-(1H-imidazol-4-yl)ethyl]-1-oxo-1,2,3,4-tetrahydroisoquinolin-7-yl}-3-[4-(methylsulfanyl)phenyl]urea] | nM (0.91) | – |
| CS(=O)(=O)c1ccc(NC(=O)Nc2ccc3c(c2)C(=O)N(CCc2c[nH]cn2)C(c2ccc(Cl)cn2)C3)cc1 (stereo not drawn) [Compound 33, 1-{3-(5-chloropyridin-2-yl)-2-[2-(1H-imidazol-4-yl)ethyl]-1-oxo-1,2,3,4-tetrahydroisoquinolin-7-yl}-3-[4-(methylsulfonyl)phenyl]urea] | nM (0.99) | – |
| CC1(C)C2CCC1C(C(=O)Nc1ccc(Br)cc1)C2C(N)=O (stereo not drawn) [Compound 34, N-(4-bromophenyl)-7,7-dimethylbicyclo[2.2.1]heptane-2,3-dicarboxamide] | nM (0.83) | – |
| CC1(C)C2CCC1C(C(=O)Nc1ccc(I)cc1)C2C(N)=O (stereo not drawn) [Compound 35, N-(4-iodophenyl)-7,7-dimethylbicyclo[2.2.1]heptane-2,3-dicarboxamide] | nM (0.81) | – |
| CSc1ccc(NC(=O)Nc2ccc3c(c2)C(=O)N(CCCN)[C@@H](c2ccc(C#N)cc2)C3)cc1 [Compound 36, (+)1-[(3R)-2-(3-aminopropyl)-3-(4-cyanophenyl)-1-oxo-1,2,3,4-tetrahydroisoquinolin-7-yl]-3-[4-(methylsulfanyl)phenyl]urea] | nM (0.97) | 3.3 |
| CSc1ccc(NC(=O)C2C(C(N)=O)C3CCC2C3(C)C)cc1 (stereo not drawn) [Compound 37, 7,7-dimethyl-N-[4-(methylsulfanyl)phenyl]bicyclo[2.2.1]heptane-2,3-dicarboxamide] | nM (0.85) | 17 |
| NC(=O)C1C(C(=O)Nc2ccc(I)cc2)C2CCC1C21CC1 (stereo not drawn) [Compound 38, N-(4-iodophenyl) spiro[bicyclo[2.2.1]heptane-7,1′-cyclopropane]-2,3-dicarboxamide] | nM (0.95) | 1.9 |
